Residues, ends and D or L forms follow the SMILES beside them. *: point of attachment. Palmitoyl = CCCCCCCCCCCCCCCC(=O)*
Tests used:
[1] = Solubility and filterability of the lipopeptides; format: physicochemical
Protocol: Le lipopeptide n° 3 est soluble dans l'acide acétique à 80%. Il peut être stérilisable par filtration sur un microfiltre de 0,22 µm. Il peut être en outre dissous dans une solution DMSO/eau 10% V/V. La mesure de la masse par spectrométrie PDMS-TOF confirme la présence du produit attendu. Le produit s'avère purifiable après injection d'une solution concentrée dans le DMSO, sur colonne Vydac C4, à 60°C, en utilisant un gradient d'acétonitrile, en présence du contre-ion TFA. Le produit est caractérisable par HPLC selon plusieurs méthodes résolutives conventionnelles, sur colonnes Vydac C4, Zorbax C3, Zorbax CN, Zorbax C1, à 60°C, à l'aide de gradients d'acétonitrile en présence d'un contre-ion TFA, ou en utilisant un modificateur organique, tel que l'isopropanol ou le butanol en isocratique.
Le trifluoroacétate du lipopeptide n°3 est soluble dans le DMSO (20-25 mg/mL), et reste soluble après dilution par de l'eau (DMSO 10%). L'échange du contre-ion trifluoroacétate pour un contre-ion acétate peut être réalisé par RP-HPLC sur une colonne C4: le produit dissous dans le DMSO à 80% est injecté sur la colonne équilibrée par le solvant A (acide acétique à 5% dans l'eau). Après élimination des produits non retenus (contre-ions TFA, sels), le produit est élué par l'aide d'un gradient du solvant A vers le solvant B (acétonitrile 80% - acide acétique à 5% - eau 15%). […]

[2] = test system: CTL spécifiques dans les PBMC de patients séropositifs pour HIV; assay: ELISPOT IFN-γ test on human PBMC of HIV-seropositive donors (antigenicity); format: cell-based, homme; conditions: PBMC of patient HLA-B7 Z118; figure 6c
Protocol: Des donneurs séropositifs pour HIV ont été sélectionnés pour leur expression en molecules HLA de classe I selon des données bien connues de l'homme du métier en matière de restriction vis-à-vis des peptides et lipopeptides.
Des microplaques de nitrocellulose (Millipore, Bedford, MA) ont été incubées pendant la nuit à 4°C avec 1 µg/ml d'un anticorps de capture anti-Interféron-γ humain dilué dans un tampon carbonate/bicarbonate à pH 9,6 (100 µl/puits). Après cinq lavages, les plaques ont été saturées pendant 2 heures à 37°C avec 200 µl puis lavées. Pour les cultures de cellules humaines, le milieu complet était composé de RPMI 1640, 10% de sérum albumine bovine, 2mM glutamine, d'antibiotiques et de β2-mercaptoéthanol (5 x 10^-5M). Pour le test avec le peptide, des PBMC de patients ont été ajoutés directement dans les microplaques de nitrocellulose (2 x 10^5 cellules/puits) et incubés pendant 24 heures à 37°C en présence de […] du peptide. Pour le test des lipopeptides, les PBMC ont été incubés pendant la nuit à 37 °C avec les lipopeptides, puis ont été lavés et irradiés (3000 rads). Ces cellules ont été utilisées comme cellules stimulatrices dans une co-culture (2 x 10^5 cellules par puits) avec des PBMC syngéniques ( rapport 1/1) dans des plaques de nitrocellulose pendant 24 heures à 37°C. […]

Molecule: CCCCCCCCCCCCCCCC(=O)NCCCC[C@H](NC(=O)CCCCCCCCCCCCCCC)C(=O)N[C@@H](CO)C(=O)N[C@@H](CO)C(=O)N[C@@H](CCC(N)=O)C(=O)N[C@@H](Cc1ccc(O)cc1)C(=O)N[C@H](C(=O)N[C@@H](CCCCN)C(=O)N[C@@H](C)C(=O)N[C@@H](CC(N)=O)C(=O)N[C@@H](CO)C(=O)N[C@@H](CCCCN)C(=O)N[C@@H](Cc1ccccc1)C(=O)N[C@H](C(=O)NCC(=O)N[C@H](C(=O)N[C@H](C(=O)N[C@@H](CCC(=O)O)C(=O)N[C@@H](CCCNC(=N)N)C(=O)NCC(=O)N[C@@H](CCCNC(=N)N)C(=O)N[C@@H](C)C(=O)N[C@@H](C)C(=O)NCC(=O)N[C@H](C(=O)NCC(=O)N[C@H](C(=O)N[C@@H](CC(C)C)C(=O)N[C@H](C(=O)N[C@H](C(=O)O)C(C)C)[C@@H](C)O)[C@@H](C)CC)[C@@H](C)CC)[C@@H](C)O)[C@@H](C)CC)[C@@H](C)CC)[C@@H](C)CC [lipopeptide n°2] (Palmitoyl-K(Palmitoyl)SSQYIKANSKFIGITERGRAAGIGILTV-OH)
- solubilité dans l'eau ([1]; water): comportement voisin du lipopeptide n°1

Molecule: CCCCCCCCCCCCCCCC(=O)NCCCC[C@H](N)C(=O)N[C@@H](CO)C(=O)N[C@@H](CO)C(=O)N[C@@H](CCC(N)=O)C(=O)N[C@@H](Cc1ccc(O)cc1)C(=O)N[C@H](C(=O)N[C@@H](CCCCN)C(=O)N[C@@H](C)C(=O)N[C@@H](CC(N)=O)C(=O)N[C@@H](CO)C(=O)N[C@@H](CCCCN)C(=O)N[C@@H](Cc1ccccc1)C(=O)N[C@H](C(=O)NCC(=O)N[C@H](C(=O)N[C@H](C(=O)N[C@@H](CCC(=O)O)C(=O)N[C@@H](CCCNC(=N)N)C(=O)NCC(=O)N[C@@H](CCCNC(=N)N)C(=O)N[C@@H](C)C(=O)N[C@@H](C)C(=O)NCC(=O)N[C@H](C(=O)NCC(=O)N[C@H](C(=O)N[C@@H](CC(C)C)C(=O)N[C@H](C(=O)N[C@H](C(=O)O)C(C)C)[C@@H](C)O)[C@@H](C)CC)[C@@H](C)CC)[C@@H](C)O)[C@@H](C)CC)[C@@H](C)CC)[C@@H](C)CC [lipopeptide n°4] (H-K(Palmitoyl)SSQYIKANSKFIGITERGRAAGIGILTV-OH)
- solubilité en milieu aqueux ([1]; aqueous medium): n'est soluble en milieu aqueux qu'en présence de DMSO

Molecule: CCCCCCCCCCCCCCCC(=O)NCCCC[C@H](NC(=O)CCCCCCCCCCCCCCC)C(=O)N[C@@H](CO)C(=O)N[C@@H](CO)C(=O)N[C@@H](CCC(N)=O)C(=O)N[C@@H](Cc1ccc(O)cc1)C(=O)N[C@H](C(=O)N[C@@H](CCCCN)C(=O)N[C@@H](C)C(=O)N[C@@H](CC(N)=O)C(=O)N[C@@H](CO)C(=O)N[C@@H](CCCCN)C(=O)N[C@@H](Cc1ccccc1)C(=O)N[C@H](C(=O)NCC(=O)N[C@H](C(=O)N[C@H](C(=O)N[C@@H](CCC(=O)O)C(=O)N[C@@H](C)C(=O)N[C@@H](C)C(=O)N[C@@H](C)C(=O)N[C@@H](C)C(=O)N[C@@H](C)C(=O)NCC(=O)N[C@H](C(=O)NCC(=O)N[C@H](C(=O)N[C@@H](CC(C)C)C(=O)N[C@H](C(=O)N[C@H](C(=O)O)C(C)C)[C@@H](C)O)[C@@H](C)CC)[C@@H](C)CC)[C@@H](C)O)[C@@H](C)CC)[C@@H](C)CC)[C@@H](C)CC [lipopeptide n° 1] (Palmitoyl-K(Palmitoyl)SSQYIKANSKFIGITEAAAAAGIGILTV-OH)
- solubilité dans un mélange DMSO/eau 10% V/V [1]: pratiquement insoluble
- solubilité dans l'eau ([1]; water): pratiquement insoluble
- solubilité dans l'eau après lyophilisation ([1]; water, after lyophilisation): totalement insoluble

Molecule: CCCCCCCCCCCCCCCC(=O)NCCCC[C@H](NC(=O)CCCCCCCCCCCCCCC)C(=O)NCC(=O)N[C@@H](CCCNC(=N)N)C(=O)N[C@@H](CCC(N)=O)C(=O)N[C@@H](Cc1ccc(O)cc1)C(=O)N[C@H](C(=O)N[C@@H](CCCCN)C(=O)N[C@@H](C)C(=O)N[C@@H](CC(N)=O)C(=O)N[C@@H](CO)C(=O)N[C@@H](CCCCN)C(=O)N[C@@H](Cc1ccccc1)C(=O)N[C@H](C(=O)NCC(=O)N[C@H](C(=O)N[C@H](C(=O)N[C@@H](CCC(=O)O)C(=O)N[C@@H](CCCNC(=N)N)C(=O)NCC(=O)N[C@@H](CCCNC(=N)N)C(=O)N[C@@H](C)C(=O)N[C@@H](C)C(=O)NCC(=O)N[C@H](C(=O)NCC(=O)N[C@H](C(=O)N[C@@H](CC(C)C)C(=O)N[C@H](C(=O)N[C@H](C(=O)O)C(C)C)[C@@H](C)O)[C@@H](C)CC)[C@@H](C)CC)[C@@H](C)O)[C@@H](C)CC)[C@@H](C)CC)[C@@H](C)CC [lipopeptide n° 3] (Palmitoyl-K(Palmitoyl)GRQYIKANSKFIGITERGRAAGIGILTV-OH)
- solubilité dans un mélange DMSO/eau 10% V/V [1]: dissous
- solubilité dans l'acide acétique à 80% ([1]; acide acétique à 80%): soluble
- solubilité ([1]; acétate salt, compared with the trifluoroacétate): comparable à celle du trifluoroacétate
- stérilisation par filtration ([1]; microfiltre de 0,22 µm): stérilisable
- solubilité dans le DMSO ([1]; trifluoroacétate salt, DMSO): 20 to 25 mg/mL
- solubilité après dilution par de l'eau ([1]; trifluoroacétate salt, DMSO solution diluted with water (DMSO 10%)): reste soluble

Molecule: NEF 68-76: épitope potentiel de HLA-B7 (FPVTPQVPL; UniProt P04601 68-76, looked up, fragment)
- antigénicité (ELISPOT Interféron-γ) [2]: induit efficacement une réponse CTL spécifique

— patent EP1068226B1, “LIPOPEPTIDES INDUCING T LYMPHOCYTIC CYTOTOXICITY BEARING AT LEAST ONE AUXILIARY T EPITOPE, AND USES FOR VACCINATION” (INSTITUT NATIONAL DE LA SANTE ET DE LA RECHERCHE MEDICALE …, priority 1998, dated 1999)
